Measurements from US12319681B2, “Tripartite androgen receptor eliminators, methods and uses thereof” (SPG Therapeutics, Inc., priority 2017, dated 2025).

Assays:
in vitro = settings: human
Procedure: For the Keratinocyte assay, normal Human Adult Primary Epidermal Keratinocyte cell line (ATCC PCS-200-011) was maintained in EPIUFE® Medium, with 60 μM calcium (Thermo MEPISOOCA) supplemented with Human Keratinocyte Growth Supplement, 100 U/mL penicillin, and 100 μg/mL streptomycin at 37° C. with 5% C02. For experiments, cells were seeded at 70% confluence per well in 100 μL of medium in 96-well plates. Reverse transfection was done on the cells using Lipofectamine 3000 (Life Technologies) with plasmids according to manufacturer's instructions. Briefly, 0.3 μL transfection reagent per 100 ng DNA were incubated with P3000 reagent and Opti-Mem prior to addition of cells. After 16 hours, medium was removed and replaced with dosing medium.
Each ARE tested was prepared in DMSO. Dosing medium was prepared at the time of treatment by serial diluting stock solution into medium. Ethanol concentrations in media never exceeded 0.1%. […] Negative control wells contained 100 L medium/well with 1 μL of ethanol/mL of medium and an appropriate amount of DMSO. […] Cells were incubated 72 hours at 37° C. without CO2.

androgen receptor (AR) = molecular target: T1, androgen receptor (AR) (Homo sapiens, UniProt P10275); assay: Keratinocyte AR Reporter Gene Assay, 24 and 72 hours continuous exposure (Example 12); type: cell-based; settings: keratinocytes
T1 construct: human keratinocytes transfected with an AR luciferase reporter gene; endogenous in cells; host or cells: normal human adult primary epidermal keratinocytes (ATCC PCS-200-011)
T1 sequence (P10275 1-920): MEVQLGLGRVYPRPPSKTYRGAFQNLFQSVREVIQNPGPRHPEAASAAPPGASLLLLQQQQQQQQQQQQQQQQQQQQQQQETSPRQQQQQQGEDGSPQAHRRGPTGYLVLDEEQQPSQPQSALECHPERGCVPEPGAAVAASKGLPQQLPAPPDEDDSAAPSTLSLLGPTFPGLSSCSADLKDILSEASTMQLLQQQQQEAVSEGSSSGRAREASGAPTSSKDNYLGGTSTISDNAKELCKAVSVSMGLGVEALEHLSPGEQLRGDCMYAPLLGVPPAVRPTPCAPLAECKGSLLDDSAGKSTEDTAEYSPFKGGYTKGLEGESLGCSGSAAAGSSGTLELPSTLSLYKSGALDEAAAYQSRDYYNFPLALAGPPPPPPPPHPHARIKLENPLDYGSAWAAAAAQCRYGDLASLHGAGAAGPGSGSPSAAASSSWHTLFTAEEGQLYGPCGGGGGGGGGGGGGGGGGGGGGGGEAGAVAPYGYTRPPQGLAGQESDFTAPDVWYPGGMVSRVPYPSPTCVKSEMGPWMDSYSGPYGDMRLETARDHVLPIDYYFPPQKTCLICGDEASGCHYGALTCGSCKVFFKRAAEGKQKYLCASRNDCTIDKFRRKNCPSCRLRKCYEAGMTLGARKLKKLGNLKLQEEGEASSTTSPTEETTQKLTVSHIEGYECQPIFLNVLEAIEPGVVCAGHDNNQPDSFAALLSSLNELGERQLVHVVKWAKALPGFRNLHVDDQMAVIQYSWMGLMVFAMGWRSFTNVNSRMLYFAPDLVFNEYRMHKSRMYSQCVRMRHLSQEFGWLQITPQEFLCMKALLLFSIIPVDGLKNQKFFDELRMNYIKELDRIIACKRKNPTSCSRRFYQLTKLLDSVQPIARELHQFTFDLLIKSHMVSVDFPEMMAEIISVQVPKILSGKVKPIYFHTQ
Procedure: To assess ARE-mediated inhibition, an AR luciferase assay was performed. After washing cells with 1×PBS, 20 μL lysis buffer (25 mM Tris/phosphate, 4 mM EGTA, 1% Triton, 10% glycerol, 2 mM DTT) was added per well, incubated for 5 minutes with gentle shaking and store at −80° C. On the day of assay, the plates were thawed to ambient temperature and 80 μL of assay buffer (25 mM glycylglycine, 15 mM MgCl2. 5 mM ATP, 0.1 mg/ml BSA) was added to each well. Plates are then processed on a microplate reader (POLARstar Omega) by injecting 100 μL of 1 mM D-luciferin per well, followed by chemiluminescence measurement of 3 seconds at onset of injection. Luciferase activity was determined, measured, and normalized to Relative Light Units (RLU). AR reporter gene activity reduction values were calculated as follows: AR reporter gene activity=1−(average signal (treatment group)/average signal (treatment group without drug).
This example illustrates how to determine the inhibitory activity of an ARE disclosed herein using a cell-based androgen receptor transcriptional reporter assay using primary human keratinocytes.
Results were analyzed for IC50 and IC90 values in GraphPad Prism using a four-parameter logistic curve equation. Bottom constraints were set to 1 (level of uninduced control).

Work on `CC12CCC(=O)C=C1C[C@@H](SC(=O)CC13CC4CC(CC(C4)C1)C3)C1C2CCC2(C)C1CC[C@@]21CCC(=O)O1` (stereo partly drawn) [SPG-003] yielded an IC50 at 72 h (in vitro) of ~50 µM, an IC50 (androgen receptor (AR); 24-hr Treatment) of 3.68 µM and an IC90 (androgen receptor (AR); 24-hr Treatment) of 6.96 µM. For the same compound, the “Maximum Inhibition” value (androgen receptor (AR); 24-hr Treatment) was 91%, the IC50 (androgen receptor (AR); 24-hr treatment) was 3.7 µM and the IC90 (androgen receptor (AR); 24-hr treatment) was 7 µM. It also gave an IC50 (androgen receptor (AR); 72-hour treatment) of 2.5 µM, an IC90 (androgen receptor (AR); 72-hour treatment) of 5.7 µM and an IC50 (androgen receptor (AR); 72-hr Treatment) of 2.57 µM. The IC90 (androgen receptor (AR); 72-hr Treatment) was 5.68 µM, the “Maximum Inhibition” value (androgen receptor (AR); 72-hr Treatment) was 93% and the “inhibition of AR reporter gene activity (in words)” value (androgen receptor (AR); 24 and 72 hours) was “dose-dependent inhibition”.
